Values of other authors in paper PMC2650103 (Journal of medicinal chemistry, 2008).

Test system: cowpox, vaccinia or ectromelia virus
Details: mouse, in vivo, po; cited from earlier work

O=C(NN1C(=O)C2C3C=CC(C4CC34)C2C1=O)c1ccc(C(F)(F)F)cc1 (stereo not shown) [Compound 30, 4-trifluoromethyl-N-(3,3a,4,4a,5,5a,6,6a-octahydro-1,3-dioxo-4,6-ethenocycloprop[f]isoindol-2(1H)-yl)-benzamide]
Protection against viral spread in mice: effective in protecting against viral spread
